Reference: US8481750B2 (Boehringer Ingelheim International GmbH, priority 2009, dated 2013)

Biological target: LFA-1 binding to ICAM-1 (Homo sapiens, UniProt P05107+P20701)
Test: Inhibition of LFA-1 binding to ICAM-1 (LFA-1/Biotin-sICAM-1 AlphaScreen molecular assay)
Conditions: highest compound concentration 1 μM in 1% DMSO, 37° C., 90 minutes
Procedure, shortened: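 AlphaScreen binding of purified LFA-1 to biotinylated sICAM-1 in DPBS with Ca/Mg, 2 mM MgCl2, 0.1% BSA, pH 7.1; compound top concentration 1 μM in 1% DMSO, 90 min at 37 °C. Detection with TS2/4 anti-LFA-1 acceptor beads (10 μg/mL final) and streptavidin donor beads (15 μg/mL final), room temperature in the dark.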

Chain of LFA-1 binding to ICAM-1 (P20701 26-1170): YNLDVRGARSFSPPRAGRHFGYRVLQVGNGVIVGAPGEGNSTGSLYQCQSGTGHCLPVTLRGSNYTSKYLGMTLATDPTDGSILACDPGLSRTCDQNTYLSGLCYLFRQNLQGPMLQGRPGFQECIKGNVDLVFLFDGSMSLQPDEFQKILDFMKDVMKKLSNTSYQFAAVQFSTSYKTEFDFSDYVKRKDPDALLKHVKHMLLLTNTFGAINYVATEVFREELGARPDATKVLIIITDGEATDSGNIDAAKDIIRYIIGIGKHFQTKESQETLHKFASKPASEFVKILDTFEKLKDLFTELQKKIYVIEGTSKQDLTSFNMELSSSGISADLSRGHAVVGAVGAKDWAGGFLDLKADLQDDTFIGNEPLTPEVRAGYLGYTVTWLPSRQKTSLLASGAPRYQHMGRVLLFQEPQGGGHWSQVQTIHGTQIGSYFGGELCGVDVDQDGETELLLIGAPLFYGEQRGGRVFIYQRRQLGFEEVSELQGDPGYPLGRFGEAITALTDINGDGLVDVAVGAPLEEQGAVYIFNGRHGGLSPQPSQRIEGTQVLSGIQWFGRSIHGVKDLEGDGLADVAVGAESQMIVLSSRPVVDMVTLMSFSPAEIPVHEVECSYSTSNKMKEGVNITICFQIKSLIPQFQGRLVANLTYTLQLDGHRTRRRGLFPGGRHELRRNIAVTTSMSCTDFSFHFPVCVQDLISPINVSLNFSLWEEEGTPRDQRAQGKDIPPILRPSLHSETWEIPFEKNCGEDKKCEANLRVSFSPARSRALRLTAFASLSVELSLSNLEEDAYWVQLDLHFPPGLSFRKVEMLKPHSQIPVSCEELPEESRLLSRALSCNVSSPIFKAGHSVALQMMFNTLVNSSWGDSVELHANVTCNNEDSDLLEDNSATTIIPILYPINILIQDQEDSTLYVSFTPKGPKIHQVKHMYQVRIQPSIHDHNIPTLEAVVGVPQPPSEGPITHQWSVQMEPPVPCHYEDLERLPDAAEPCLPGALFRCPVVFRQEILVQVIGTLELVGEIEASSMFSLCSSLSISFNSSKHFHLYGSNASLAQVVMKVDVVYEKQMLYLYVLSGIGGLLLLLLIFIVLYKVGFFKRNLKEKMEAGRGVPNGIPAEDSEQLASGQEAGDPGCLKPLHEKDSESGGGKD
Chain of LFA-1 binding to ICAM-1 (P05107 23-769): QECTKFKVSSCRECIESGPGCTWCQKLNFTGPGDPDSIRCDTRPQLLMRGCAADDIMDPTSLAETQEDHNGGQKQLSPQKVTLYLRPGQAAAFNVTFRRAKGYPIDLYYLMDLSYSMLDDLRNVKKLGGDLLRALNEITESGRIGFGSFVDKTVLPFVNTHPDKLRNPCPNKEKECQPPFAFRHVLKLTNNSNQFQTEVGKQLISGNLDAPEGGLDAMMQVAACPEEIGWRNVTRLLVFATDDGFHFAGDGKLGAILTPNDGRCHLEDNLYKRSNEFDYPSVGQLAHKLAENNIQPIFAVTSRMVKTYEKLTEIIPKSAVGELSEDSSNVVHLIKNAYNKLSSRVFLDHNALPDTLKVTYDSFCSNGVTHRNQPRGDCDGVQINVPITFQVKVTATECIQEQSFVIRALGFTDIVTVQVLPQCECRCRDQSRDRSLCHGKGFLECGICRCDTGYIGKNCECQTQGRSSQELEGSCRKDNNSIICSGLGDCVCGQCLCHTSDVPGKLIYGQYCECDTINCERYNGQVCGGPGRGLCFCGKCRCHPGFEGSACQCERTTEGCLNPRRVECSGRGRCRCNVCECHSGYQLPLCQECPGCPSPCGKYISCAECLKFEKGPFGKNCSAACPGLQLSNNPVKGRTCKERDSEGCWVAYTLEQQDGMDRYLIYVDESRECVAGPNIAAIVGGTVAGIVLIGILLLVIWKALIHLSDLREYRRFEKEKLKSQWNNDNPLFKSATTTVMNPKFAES

Question: For `C[C@@]1(Cc2ccc(C#N)cc2)C(=O)N(c2cc(Cl)cc(Cl)c2)c2ncc(C(=O)NC3(C(=O)NC4(c5ccc(C(=O)NCc6ccccn6)cn5)CC4)CC3)n21` [compound 36], which IC50 is on record?
Answer: Its IC50 is 0.25 nM.

Question: For `C[C@@]1(Cc2ccc(C#N)cc2)C(=O)N(c2cc(Cl)cc(Cl)c2)c2ncc(C(=O)NC3(C(=O)NC4(c5ccc(C(=O)NCCc6ccccc6)cn5)CC4)CC3)n21` [compound 134], which IC50 is on record?
Answer: The IC50 was 2.2 nM.

Question: Which IC50 does the source give for `C[C@@]1(Cc2ccc(C#N)cc2)C(=O)N(c2cc(Cl)cc(Cl)c2)c2ncc(C(=O)NC3(C(=O)NC4(c5cc(C(=O)N6CCCC(C(N)=O)C6)ccn5)CC4)CC3)n21` (stereo partly drawn) [compound 43] here?
Answer: The IC50 was 0.74 nM.

Question: How did the IC50 turn out when `C[C@@]1(Cc2ccc(C#N)cc2)C(=O)N(c2cc(Cl)cc(Cl)c2)c2ncc(C(=O)NC3(C(=O)NC4(c5cccc(C(=O)N6CCC[C@H]6C(N)=O)n5)CC4)CC3)n21` [compound 28] was run?
Answer: The IC50 was 2.5 nM.

Question: With `CC(=O)N(C)C1CCN(C(=O)c2cccc(C3(NC(=O)C4(NC(=O)c5cnc6n5[C@](C)(Cc5ccc(C#N)cc5)C(=O)N6c5cc(Cl)cc(Cl)c5)CC4)CC3)n2)C1` (stereo partly drawn) [compound 45] as the molecule, how does the IC50 read?
Answer: Its IC50 is 4.5 nM.

Question: How did the IC50 turn out when `C[C@@]1(Cc2ccc(C#N)cc2)C(=O)N(c2cc(Cl)cc(Cl)c2)c2ncc(C(=O)NC3(C(=O)NC4(c5cc(C(=O)N6CCCCC6)ccn5)CC4)CC3)n21` [compound 110] was run?
Answer: The IC50 was 3.4 nM.

Question: For `CC(CO)NC(=O)c1cccc(C2(NC(=O)C3(NC(=O)c4cnc5n4[C@](C)(Cc4ccc(C#N)cc4)C(=O)N5c4cc(Cl)cc(Cl)c4)CC3)CC2)n1` (stereo partly drawn) [compound 150], which IC50 is on record?
Answer: The IC50 was 0.81 nM.

Question: For `C[C@@]1(Cc2ccc(C#N)cc2)C(=O)N(c2cc(Cl)cc(Cl)c2)c2ncc(C(=O)NC3(C(=O)NC4(c5cc(C(=O)NCCc6ccccc6)ccn5)CC4)CC3)n21` [compound 32], which IC50 is on record?
Answer: Its IC50 is 4 nM.

Question: Which IC50 does the source give for `CC(=O)NCCNC(=O)c1cccc(C2(NC(=O)C3(NC(=O)c4cnc5n4[C@](C)(Cc4ccc(C#N)cc4)C(=O)N5c4cc(Cl)cc(Cl)c4)CC3)CC2)n1` [compound 68] here?
Answer: The IC50 was 0.5 nM.

Question: Which IC50 does the source give for `CN(C)CCNC(=O)c1ccc(C2(NC(=O)C3(NC(=O)c4cnc5n4[C@](C)(Cc4ccc(C#N)cc4)C(=O)N5c4cc(Cl)cc(Cl)c4)CC3)CC2)nc1` [compound 106] here?
Answer: Its IC50 is 0.82 nM.

Question: With `C[C@@]1(Cc2ccc(C#N)cc2)C(=O)N(c2cc(Cl)cc(Cl)c2)c2ncc(C(=O)NC3(C(=O)NC4(c5ccc(C(=O)NCC6CC6)cn5)CC4)CC3)n21` [compound 13] as the molecule, how does the IC50 read?
Answer: Its IC50 is 0.44 nM.

Question: `C[C@@]1(Cc2ccc(C#N)cc2)C(=O)N(c2cc(Cl)cc(Cl)c2)c2ncc(C(=O)NC3(C(=O)NC4(c5cc(C(=O)NCC(O)CO)ccn5)CC4)CC3)n21` (stereo partly drawn) [compound 96] was tested. Which IC50 did it give?
Answer: Its IC50 is 0.74 nM.
